Results reported in patent US20230086702A1, “SUBSTITUTED 2-AMINO-PYRAZOLYL-[1,2,4]TRIAZOLO[1,5A]PYRIDINE DERIVATIVES AND USE THEREOF” (The Johns Hopkins University, priority 2019, published 2023).

What was measured:
hRGCs = test: hRGC survival under rotenone or CCCP (Cell Titer Glo); format: cell-based, human; conditions: 1 uM rotenone or 30 uM CCCP, increasing doses, 72 hours (FIG. 4)
Experimental: (§1) H7 or H9 human embryonic stem cells or patient-derived induced pluripotent stem cells were modified to express mouse Thy1.2 and tdTomato from the BRN3B locus (Sluch et al., 2017). To produce RGCs, stem cells were dissociated to single cells and plated on Matrigel (Corning, USA) coated plates at a density of 52.6 K/cm^2 in mTeSR1 with […] blebbistatin, a time point designated as day minus 1 (d-1). One day after plating, mTeSR1 was completely exchanged for N2B27 media [1:1 mix of DMEM/F12 and Neurobasal with GlutaMAX Supplement, antibiotic-antimycotic, 1% N2 Supplement, and 2% B27 Supplement (all from ThermoFisher Scientific)] to start differentiation; this day was designated as day 0 (d0). Small molecules were added to the cells on day 1 (dl), 24 hours after d0. Small molecule addition was done in fresh N2B27 media. Cells were fed with a full exchange of N2B27 media every other day unless a small molecule was to be removed or added on that day of differentiation, requiring daily feeding. […] After 35 days in culture, when abundant RGCs have appeared (indicated by red fluorescence), cultures were dissociated into a single cell suspension. […]
hRGCs were challenged with (A) 1 uM rotenone or (B) 30 uM CCCP in the presence of increasing doses of I-84 for 72 hours. Cell survival was quantified using Cell Titer Glo, an ATP-based luminescent assay.

[1] = test system: human stem cell derived RGCs; test: Protection of human stem cell derived RGCs in models of mitochondrial injury (FIG. 4); format: cell-based
Experimental: as §1, with “d0.” for “d0. Small molecule addition was done in fresh N2B27 media. Cells were fed with a full exchange of N2B27 media every other day unless a small molecule was to be removed or added on that day of differentiation, requiring daily feeding.”
In order to test compounds, RGCs were plated in 96- or 384-well Nunclon or Falcon dishes. […] For both sets of RGCs, increasing doses of the kinase inhibitors was added at the time of injury and survival was quantitated after 72 hours using CellTiter-Glo (Promega, Madison) and measuring relative light units (RLU) or by staining cultures with conventional viability dyes (i.e. ethidium homodimer exclusion, calcein AM uptake) and measuring survival by automated image analysis.

DLK = target: T1, DLK (Homo sapiens, UniProt Q12852); test: DLK biochemical assay (TR-FRET, MKK7 phosphorylation); conditions: DLK catalytic domain, MKK7 substrate, 60 μM ATP
T1 construct: 10 nM DLK, catalytic domain, Carna Biosiences; purchased Carna Biosciences ('Carna Biosiences' [sic])
T1 sequence (Q12852 125-366 limits assumed): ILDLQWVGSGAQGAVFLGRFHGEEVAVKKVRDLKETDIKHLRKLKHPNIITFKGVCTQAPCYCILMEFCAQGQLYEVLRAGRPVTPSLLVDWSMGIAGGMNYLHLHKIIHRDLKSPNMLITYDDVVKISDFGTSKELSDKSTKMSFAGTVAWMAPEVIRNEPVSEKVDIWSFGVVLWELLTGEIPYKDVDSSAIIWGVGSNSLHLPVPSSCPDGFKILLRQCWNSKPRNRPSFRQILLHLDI
Summary of the method: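 TR-FRET read-out (ratio of 665 nm acceptor to Eu donor channel) tracks MKK7 T275/S277 phosphorylation by DLK, using Eu-labelled anti-phospho-MKK7 and XL665-labelled anti-His on His-MKK7. Reactions were stopped and detected in pH 7.5 Tris buffer containing 100 mM EDTA, 100 mM NaCl, 200 mM KF and 0.01% Tween 20.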

LZK = target: T2, LZK (Homo sapiens, UniProt O43283); test: LZK biochemical assay (TR-FRET, MKK7 phosphorylation); conditions: LZK catalytic domain, MKK7 substrate, 15 μM ATP
T2 construct: 10 nM LZK, catalytic domain, Carna Biosiences in assay buffer; purchased Carna Biosciences ('Carna Biosiences' [sic])
T2 sequence (O43283 168-409 limits assumed): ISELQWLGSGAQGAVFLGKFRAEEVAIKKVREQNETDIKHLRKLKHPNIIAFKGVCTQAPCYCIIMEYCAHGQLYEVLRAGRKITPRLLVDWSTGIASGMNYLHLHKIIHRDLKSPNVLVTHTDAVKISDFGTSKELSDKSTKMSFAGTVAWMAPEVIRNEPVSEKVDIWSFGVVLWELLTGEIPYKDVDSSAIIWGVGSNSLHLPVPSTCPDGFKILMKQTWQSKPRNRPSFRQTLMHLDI

[2] = test system: retinal ganglion cells (RGCs); test: Optic nerve crush, RGC survival (RBPMS staining); format: in vivo, C57B6/J animals; conditions: intravitreal injection of 8 mM, second injection 4 days later, two weeks after optic nerve crush, vs vehicle (FIG. 3)
Description: Inhibition of DLK and LZK can reduce the neuronal injury response and result in the protection of various neuronal populations from degeneration. Cells can be immunostained for p-cJun S73 (p-JUN), which is an indicator of DLK pathway activation. Accordingly, decreased p-JUN staining compared to a control can be indicative of inhibition of DLK pathway activation. RBPMS can be used to mark retinal ganglion cells (RGCs) and show changes in cell survival (e.g., increased RBPMS staining compared to a control can indicate increased cell survival).
Unilateral optic nerve crush was performed on C57B6/J animals between 6 and 8 weeks of age, followed by intravitreal injection of 8 mM of I-106. A second injection was performed 4 days later. Two weeks after optic nerve crush, animals were sacrificed and retinas were immunostained for RBPMS. Confocal microscopy was used to image RGCs and ImageJ was used to quantify the density of RGCs.
Mice were intravitreally injected with 1 μL of vehicle (DMSO), 100 mM I-81, or 300 mM I-81 immediately following optic nerve crush injury. Retinas were extracted 1 month later and immunofluorescently labelled with anti-RBPMS to mark RGCs, anti-phosphorylated JUN (P-JUN) to examine DLK/JNK pathway induction, and Tuj1 to visualize axons (see FIG. 9).

retina = test: Retinal structure and function after intravitreal injection (optical coherence tomography, electroretinographs); format: in vivo, mice; conditions: 7 days following intravitreal injection of 10 mM, vs vehicle (DMSO) (FIG. 10, 11A, 11B)
Experimental: Optical coherence tomography images of mice 7 days following intravitreal injections of either vehicle (DMSO) or 10 mM I-81 were obtained (FIG. 10). Retinal electroretinographs were also acquired (FIGS. 11A and 11B).

| SMILES | cell survival of hRGCs (hRGCs) | protection of human stem cell derived RGCs [1] | IC50 (DLK) [nM] | IC50 (LZK) [nM] | survival of RGCs (density of RBPMS) [2] | structural or functional toxicity to the retina (retina) |
| --- | --- | --- | --- | --- | --- | --- |
| CC[C@H](C)NC(=O)c1cc(-c2cnn([C@H](c3ccc(C(F)(F)F)nc3)C3CCN(C(C)=O)CC3)c2)cn2nc(N)nc12 [Example I-84, 6-(1-{(1-Acetylpiperidin-4-yl)[6-(trifluoromethyl)pyridin-3-yl]methyl}-1H-pyrazol-4-yl)-2-amino-N-[(2S)-butan-2-yl][1,2,4]triazolo[1,5-a]pyridine-8-carboxamide] | protective to human stem cell derived RGCs in models of mitochondrial injury | protective | 0.5 | 1.2 | – | – |
| CC[C@H](C)NC(=O)c1cc(-c2cnn([C@H](c3ccc(C(F)(F)F)nc3)C(C)C)c2)cc2nc(N)nn12 (single isomer, unassigned) [Example I-106] | – | – | 1 | 1.6 | promoted survival of RGCs following optic nerve crush | – |
| CC[C@H](C)NC(=O)c1cc(-c2cnn([C@H](c3ccc(C(F)(F)F)nc3)C3CCN(C(=O)OC(C)(C)C)CC3)c2)cn2nc(N)nc12 [Example I-81, tert-Butyl 4-{(4-{2-amino-8-[(2S)-butan-2-ylcarbamoyl][1,2,4]triazolo[1,5-a]pyridin-6-yl}-1H-pyrazol-1-yl)[6-(trifluoromethyl)pyridin-3-yl]methyl}piperidine-1-carboxylate] | – | – | 6.6 | 8.5 | – | did not induce structural or functional toxicity to the retina |
| CC(C)(CO)NC(=O)c1cc(-c2cnn(C(c3ccc(C(F)(F)F)nc3)C3CCOCC3)c2)cn2nc(N)nc12 (single isomer, unassigned) [Example I-167, 2-Amino-N-(1-hydroxy-2-methylpropan-2-yl)-6-(1-{tetrahydro-2H-pyran-4-yl[6-(trifluoromethyl)pyridin-3-yl]methyl}-1H-pyrazol-4-yl)[1,2,4]triazolo[1,5-a]pyridine-8-carboxamide] | – | – | 22 | 85 | – | – |
| CC[C@@H](c1ccc(F)cc1)n1cc(-c2cc(C(=O)NC(C)CF)n3nc(N)nc3c2)cn1 (single isomer, unassigned) [Example I-150, 2-Amino-7-{1-[(15)-1-(4-fluorophenyl)propyl]-1H-pyrazol-4-yl}-N-(1-fluoropropan-2-yl)[1,2,4]triazolo[1,5-a]pyridine-5-carboxamide] | – | – | 6.5 | 60 | – | – |
| CC[C@H](C)NC(=O)c1cc(-c2cnn(C(c3ccccc3)C(C)(C)C)c2)cn2nc(N)nc12 (single isomer, unassigned) [Example I-36] | – | – | 25 | 180 | – | – |
| CC[C@H](C)NC(=O)c1cc(-c2cnn(C3CCCc4ncccc43)c2)cc2nc(N)nn12 (mixture of isomers) [Example I-19, 2-Amino-N-[(2S)-butan-2-yl]-7-[1-(5,6,7,8-tetrahydroquinolin-5-yl)-1H-pyrazol-4-yl][1,2,4]triazolo[1,5-a]pyridine-5-carboxamide] | – | – | 21 | 3.9 | – | – |
| CC[C@H](C)NC(=O)c1cc(-c2cnn(C(c3c(F)cncc3F)C(C)C)c2)cc2nc(N)nn12 (mixture of isomers) [Example I-123, 2-Amino-N-[(2S)-butan-2-yl]-7-{1-[1-(3,5-difluoropyridin-4-yl)-2-methylpropyl]-1H-pyrazol-4-yl}[1,2,4]triazolo[1,5-a]pyridine-5-carboxamide] | – | – | 5.9 | 170 | – | – |
| CC(C)(CO)NC(=O)c1cc(-c2cnn(C(c3ccc(C(F)(F)F)nc3)C3CCOCC3)c2)cn2nc(N)nc12 (single isomer, unassigned) [Example I-168, 2-Amino-N-(1-hydroxy-2-methylpropan-2-yl)-6-(1-{tetrahydro-2H-pyran-4-yl[6-(trifluoromethyl)pyridin-3-yl]methyl}-1H-pyrazol-4-yl)[1,2,4]triazolo[1,5-a]pyridine-8-carboxamide] | – | – | 1.5 | 8.9 | – | – |
| CCC(c1ccc(F)cn1)n1cc(-c2cc(C(=O)N[C@@H](C)CC)c3nc(N)nn3c2)cn1 (single isomer, unassigned) [Example I-57] | – | – | 59 | 61 | – | – |
| CC(C)C(c1ccc(F)cc1)n1cc(-c2cc(C(=O)N[C@@H](C)CO)c3nc(N)nn3c2)cn1 (mixture of isomers) [Example I-160, 2-Amino-6-{1-[1-(4-fluorophenyl)-2-methylpropyl]-1H-pyrazol-4-yl}-N-[(2S)-1-hydroxypropan-2-yl][1,2,4]triazolo[1,5-a]pyridine-8-carboxamide] | – | – | 4.3 | 130 | – | – |
